Measured values from patent EP1069898B1, “TOPICAL ANTISEPTIC COMPOSITIONS AND METHODS” (MARGOLIN, Solomon B., priority 1998, dated 1999).

Assays:
Proteus vulgaris = test: Preliminary antimicrobial test, plate growth score; assay type: cell-based
Escherichia coli = test: Preliminary antimicrobial test, plate growth score; assay type: cell-based
Pseudomonas aeruginosa = test: Preliminary antimicrobial test, plate growth score; assay type: cell-based; set-up: key: 1=very slight; 2=slight; 3=slight to moderate; 4=moderate; 10=total plate growth (maximal growth)
Bacillus subtilis = test: Preliminary antimicrobial test, plate growth score; assay type: cell-based
Staphylococcus aureus = test: Preliminary antimicrobial test, plate growth score; assay type: cell-based
Candida albicans = test: Preliminary antimicrobial test, plate growth score; assay type: cell-based; set-up: key: 1=very slight; 2=slight; 3=slight to moderate; 4=moderate; 10=total plate growth (maximal growth)
Aspergillus niger = test: Preliminary antimicrobial test, plate growth score; assay type: cell-based
[1] = system: Trychophton mentagrophytes; test: Preliminary antimicrobial test, plate growth score; assay type: cell-based; set-up: key: 1=very slight; 2=slight; 3=slight to moderate; 4=moderate; 10=total plate growth (maximal growth)
[2] = Storage stability (chemical assays and physical characteristics); assay type: physicochemical; conditions: crystalline; 25 degrees Centigrade
Description: A critical feature of the compositions of this invention is the chemical stability of the active ingredient(s), pirfenidone and/or related compounds. Crystalline pirfenidone is stable at room temperature (i.e., 25 degrees Centigrade) for more than five years. The formulations described above are stable for two years or longer at 25 degrees Centigrade (room temperature), based upon chemical assays and upon physical characteristics (color, plasticity, active ingredient dispersion and suspension).

[3] = Primary rabbit acute eye irritation test (Draize method); assay type: in vivo; conditions: 2.0% sterile aqueous solution, 0.1 ml. per eye; six albino rabbits; examined up to 10 days
Protocol: The eyes were carefully examined at 1.0 minutes, 30 minutes, and 3 hours after applying the solution, and then repeatedly examined for 10 days after the application of the pirfenidone solution (0.1 ml. per eye).
The eyes were carefully examined at 1, 3, 8, 24, and 48 hours and carefully re-examined daily for 10 days after the application of the ointment (100 milligrams per eye).

[4] = Pirfenidone concentration 5.0 wt.%
[5] = Pirfenidone concentration 10.0 wt.%

## Cc1ccc(=O)n(-c2ccccc2)c1 [Pirfenidone, 5-methyl-1-phenyl-2-(1H) pyridone]
Proteus vulgaris; [4]
  GROWTH SCORES (0 TO 10): 0
Proteus vulgaris; [5]
  GROWTH SCORES (0 TO 10): 0
Escherichia coli; [4]
  GROWTH SCORES (0 TO 10): 0
Escherichia coli; [5]
  GROWTH SCORES (0 TO 10): 0
Pseudomonas aeruginosa; Pirfenidone concentration 2.0 wt.%
  GROWTH SCORES (0 TO 10): 1
Pseudomonas aeruginosa; [4]
  GROWTH SCORES (0 TO 10): 0
Pseudomonas aeruginosa; [5]
  GROWTH SCORES (0 TO 10): 0
Bacillus subtilis; [4]
  GROWTH SCORES (0 TO 10): 0
Bacillus subtilis; [5]
  GROWTH SCORES (0 TO 10): 0
Staphylococcus aureus; [4]
  GROWTH SCORES (0 TO 10): 0
Staphylococcus aureus; [5]
  GROWTH SCORES (0 TO 10): 0
Candida albicans; [4]
  GROWTH SCORES (0 TO 10): 2
Candida albicans; [5]
  GROWTH SCORES (0 TO 10): 0
Aspergillus niger; [4]
  GROWTH SCORES (0 TO 10): 0
Aspergillus niger; [5]
  GROWTH SCORES (0 TO 10): 0
[1]; [4]
  GROWTH SCORES (0 TO 10): 2
[1]; [5]
  GROWTH SCORES (0 TO 10): 0
[2]
  stable at room temperature: more than five
[3]
  eye irritation (hyperemia, edema, eye discomfort, chemotaxis): failed to cause any irritation
